Patent US8450494B2, “Disubstituted benzamide derivatives as glucokinase (GK) activators” (Cadila Healthcare Limited, priority 2010, dated 2013)

Target: T1, glucokinase (GK) enzyme (Homo sapiens, UniProt P35557)
T1 sequence (P35557 1-465): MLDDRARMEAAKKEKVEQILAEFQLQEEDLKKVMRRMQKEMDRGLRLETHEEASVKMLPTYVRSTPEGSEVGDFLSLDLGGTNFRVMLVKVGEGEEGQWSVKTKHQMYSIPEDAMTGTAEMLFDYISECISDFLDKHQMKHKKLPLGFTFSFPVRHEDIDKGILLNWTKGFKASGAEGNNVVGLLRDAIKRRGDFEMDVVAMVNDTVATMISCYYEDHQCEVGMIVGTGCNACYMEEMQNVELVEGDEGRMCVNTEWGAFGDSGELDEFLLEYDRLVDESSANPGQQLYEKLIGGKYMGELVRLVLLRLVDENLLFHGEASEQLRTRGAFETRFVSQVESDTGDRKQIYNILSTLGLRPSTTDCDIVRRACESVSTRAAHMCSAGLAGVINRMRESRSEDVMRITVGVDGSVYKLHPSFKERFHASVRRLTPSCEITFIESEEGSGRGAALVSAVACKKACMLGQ
Assay: In-vitro glucokinase (GK) enzyme activation assay (coupled with glucose-6-phosphate dehydrogenase, absorbance at 340)
Assay type: biochemical
Conditions: glucose 2.5 mM, ATP 1 mM; for EC50: GK activation; for activity at 0.1 µM / activity at 1 µM / activity at 5 µM / activity at 10 µM: read-out: % of GK activity wrt DMSO
Protocol: The compound of the invention was incubated with glucokinase (GK) enzyme (0.2 units) for 10 minutes in assay buffer at 26° C. After incubation, addition of glucose-6-phosphate dehydrogenase (2.5 units), ATP (1 mM) and glucose (2.5 mM). Absorbance is measured at 340 nm for 15 minutes with 10 second interval using UV transparent plate in kinetic mode on Spectramax-190 at 30° C.

SMILES	EC50	activity at 0.1 µM (compound 0.1 uM)	activity at 1 µM (compound 1 uM)	activity at 5 µM (compound 5 uM)	activity at 10 µM (compound 10 uM)	% of GK activity wrt DMSO (compound 0.1 uM)	% of GK activity wrt DMSO (compound 1 uM)	% of GK activity wrt DMSO (compound 5 uM)	% of GK activity wrt DMSO (compound 10 uM)
COCC(C)Oc1cc(Oc2ccc(-c3nnc(C)o3)cc2)cc(C(=O)Nc2nccs2)c1 (stereo not shown) [Example 1.1, 3-(1-Methoxypropan-2-yloxy)-5-(4-(5-methyl-1,3,4-oxadiazol-2-yl)phenoxy)-N-(thiazol-2-yl)benzamide]	21 nM	276%	309%	316%	309%				
C=CCCOc1cc(Oc2ccc(-c3nnc(C)o3)cc2)cc(C(=O)Nc2nccs2)c1 [Example 1.2, 3-(But-3-enyloxy)-5-(4-(5-methyl-1,3,4-oxadiazol-2-yl)phenoxy)-N-(thiazol-2-yl)benzamide]	81 nM	167%	229%	242%	244%				
COCC(C)Oc1ccc(Oc2ccc(-c3nnc(C)o3)cc2)cc1C(=O)Nc1nccs1 (stereo not shown) [Example 1.3, 2-(1-Methoxypropan-2-yloxy)-5-(4-(5-methyl-1,3,4-oxadiazol-2-yl)phenoxy)-N-(thiazol-2-yl)benzamide]		99.8%	96.8%	110%	107%				
Cc1nnc(-c2ccc(Oc3cc(OC(C)C4CC4)cc(C(=O)Nc4nccs4)c3)cc2)o1 (stereo not shown) [Example 1.4, 3-(1-Cyclopropylethoxy)-5-(4-(5-methyl-1,3,4-oxadiazol-2-yl)phenoxy)-N-(thiazol-2-yl)benzamide]	23 nM	282%	313%	314%	311%				
Cc1nnc(-c2ccc(Oc3cc(OCC4CC4)cc(C(=O)Nc4nccs4)c3)cc2)o1 [Example 1.5, 3-(Cyclopropylmethoxy)-5-(4-(5-methyl-1,3,4-oxadiazol-2-yl)phenoxy)-N-(thiazol-2-yl)benzamide]	88 nM	234%	292%	305%	293%				
Cc1nnc(-c2ccc(Oc3cc(OCC4CCC5(CC5)C4)cc(C(=O)Nc4nccs4)c3)cc2)o1 (stereo not shown) [Example 1.6, 3-(4-(5-Methyl-1,3,4-oxadiazol-2-yl)phenoxy)-5-(spiro[2.4]heptan-5-ylmethoxy)-N-(thiazol-2-yl)benzamide]		134%	178%	183%	165%				
COC(C)CCOc1cc(Oc2ccc(-c3nnc(C)o3)cc2)cc(C(=O)Nc2nccs2)c1 (stereo not shown) [Example 1.7, 3-(3-Methoxybutoxy)-5-(4-(5-methyl-1,3,4-oxadiazol-2-yl)phenoxy)-N-(thiazol-2-yl)benzamide]		164%	228%	245%	236%				
Cc1nnc(-c2ccc(Oc3cc(OCC45CC6CC(CC(C6)C4)C5)cc(C(=O)Nc4nccs4)c3)cc2)o1 [Example 1.9, 3-(4-(5-Methyl-1,3,4-oxadiazol-2-yl)phenoxy)-5-(admantanemethoxy)-N-(thiazol-2-yl)benzamide]						121.83%	137.7%	141.3%	153.4%
COC[C@H](C)Oc1cc(Oc2ccc(-c3nnc(C)o3)cc2)cc(C(=O)Nc2nccs2)c1 [Example 2.1, (S)-3-(1-Methoxypropan-2-yloxy)-5-(4-(5-methyl-1,3,4-oxadiazol-2-yl)phenoxy)-N-(thiazol-2-yl)benzamide]	14 nM	271%	267%	271%	282%				
Cc1nnc(-c2ccc(Oc3cc(OCC4CCCCC4)cc(C(=O)Nc4nccs4)c3)cc2)o1 [Example 2.2, 3-(Cyclohexylmethoxy)-5-(4-(5-methyl-1,3,4-oxadiazol-2-yl)phenoxy)-N-(thiazol-2-yl)benzamide]	316 nM	146%	178%	193%	192%				
Cc1csc(NC(=O)c2cc(OCC3CCCCC3)cc(Oc3ccc(-c4nnc(C)o4)cc3)c2)n1 [Example 2.3, 3-(Cyclohexylmethoxy)-5-(4-(5-methyl-1,3,4-oxadiazol-2-yl)phenoxy)-N-(4-methylthiazol-2-yl)benzamide]		123%	137%	148%	150%				
C=CCOc1cc(Oc2ccc(-c3nnc(C)o3)cc2)cc(C(=O)Nc2nccs2)c1 [Example 2.4, 3-(Allyloxy)-5-(4-(5-methyl-1,3,4-oxadiazol-2-yl)phenoxy)-N-(thiazol-2-yl)benzamide]	64 nM	240%	284%	324%	311%				
Cc1nnc(-c2ccc(Oc3cc(OCC(C)C)cc(C(=O)Nc4nccs4)c3)cc2)o1 [Example 2.5, 3-Isobutoxy-5-(4-(5-methyl-1,3,4-oxadiazol-2-yl)phenoxy)-N-(thiazol-2-yl)benzamide]	103 nM	195%	256%	282%	278%				
Cc1nnc(-c2ccc(Oc3cc(OCC4CCOCC4)cc(C(=O)Nc4nccs4)c3)cc2)o1 [Example 2.6]						128.2%	196.4%	251.8%	249.3%
CCOC(=O)Cc1csc(NC(=O)c2cc(Oc3ccc(-c4nnc(C)o4)cc3)cc(OC(C)COC)c2)n1 (stereo not shown) [Example 2.7, Ethyl 2-(2-(3-((1-methoxypropan-2-yl)oxy)-5-(4-(5-methyl-1,3,4-oxadiazol-2-yl)phenoxy)benzamido)thiazol-4-yl)acetate]		288%	349%	353%	345%				
COCC(C)Oc1cc(Oc2ccc(-c3nnc(C)o3)cc2)cc(C(=O)Nc2nc(CC(=O)O)cs2)c1 (stereo not shown) [Example 2.8]						239.5%	323.6%	336.3%	328.9%
COCC(C)Oc1cc(Oc2ccc(-c3nnc(C)o3)cc2)cc(C(=O)Nc2ncc(C)s2)c1 (stereo not shown) [Example 2.9, 3-((1-Methoxypropan-2-yl)oxy)-5-(4-(5-methyl-1,3,4-oxadiazol-2-yl)phenoxy)-N-(5-methylthiazol-2-yl)benzamide]		251%	278%	283%	279%				
COCC(C)Oc1cc(Oc2ccc(-c3nnc(C)o3)cc2)cc(C(=O)Nc2nc(C)cs2)c1 (stereo not shown) [Example 2.10, 3-((1-Methoxypropan-2-yl)oxy)-5-(4-(5-methyl-1,3,4-oxadiazol-2-yl)phenoxy)-N-(4-methylthiazol-2-yl)benzamide]		310%	370%	368%	356%				
COC[C@H](C)Oc1cc(Oc2ccc(-c3nnc(C)o3)cc2)cc(C(=O)Nc2ncc(C)s2)c1 [Example 2.11, (S)-3-((1-Methoxypropan-2-yl)oxy)-5-(4-(5-methyl-1,3,4-oxadiazol-2-yl)phenoxy)-N-(5-methylthiazol-2-yl)benzamide]		235%	258%	191%	243%				
C=CCCOc1cc(Oc2ccc(-c3nnc(C)o3)cc2)cc(C(=O)Nc2nc(C)cs2)c1 [Example 2.12, 3-(But-3-en-1-yloxy)-5-(4-(5-methyl-1,3,4-oxadiazol-2-yl)phenoxy)-N-(4-methylthiazol-2-yl)benzamide]		140%	176%	302%	144%				
C=CCCOc1cc(Oc2ccc(-c3nnc(C)o3)cc2)cc(C(=O)Nc2ncc(C)s2)c1 [Example 2.13, 3-(But-3-en-1-yloxy)-5-(4-(5-methyl-1,3,4-oxadiazol-2-yl)phenoxy)-N-(5-methylthiazol-2-yl)benzamide]		112%	180%	233%	215%				
C=CCOc1cc(Oc2ccc(-c3nnc(C)o3)cc2)cc(C(=O)Nc2ncc(C)s2)c1 [Example 2.14, 3-(Allyloxy)-5-(4-(5-methyl-1,3,4-oxadiazol-2-yl)phenoxy)-N-(5-methylthiazol-2-yl)benzamide]		116%	184%	241%	215%				
COC[C@@H](C)Oc1cc(Oc2ccc(-c3nnc(C)o3)cc2)cc(C(=O)Nc2nccs2)c1 [Example 2.15, (R)-3-(1-Methoxypropan-2-yloxy)-5-(4-(5-methyl-1,3,4-oxadiazol-2-yl)phenoxy)-N-(thiazol-2-yl)benzamide]		105%	164%	239%	266%				
